Earlier results in paper PMC7395068, “The evolution of strategies to minimise the risk of human drug-induced liver injury (DILI) in drug discovery and development” (Archives of Toxicology, 2020).
Where two headings read alike, the source gives them in different places.

Assays:
[1] = cited from earlier work
[2] = cited from earlier work; remark: listed apart in the source
[3] = cited from earlier work; remark: listed apart in the source
[4] = system: THLE or HepG2 cells, isolated mitochondria, BSEP; conditions: cited from earlier work
[5] = system: primary human hepatocytes, NIH3T3 fibroblasts, BSEP, CYP3A4; conditions: cited from earlier work
PHH = conditions: In vitro Assay; ref Proctor 2017; cited from earlier work
hLiMTs = conditions: In vitro Assay; ref Proctor 2017; cited from earlier work
rBsep = conditions: In vitro Assay; ref Dawson 2012; cited from earlier work
[6] = system: THLE-Null and THLE-3A4 cells; conditions: In vitro Assay; ref Gustafsson 2014; cited from earlier work
[7] = system: HepG2 C3A spheroid, BSEP, Glu/Gal in HepG2 cells, bioactivation; conditions: cited from earlier work
[8] = system: HepG2 cells, primary human hepatocytes; conditions: cited from earlier work
PHH spheroids = conditions: In vitro Assay; ref Vorrink 2018; cited from earlier work
human hepatocytes = conditions: cited from earlier work
[9] = FDA drug labelling score, ref Chen 2011
[10] = LTKB DILIrank category, ref Chen 2016
[11] = binary DILI call, ref Chen 2016
[12] = In vitro Assay, ref Schadt 2015
[13] = In vitro Assay, ref Williams 2019
[14] = In vitro Assay, ref Garside 2014
[15] = FDA drug labelling score, scale 1-8, ref Chen 2011
[16] = binary in vivo human DILI call, ref Chen 2016
[17] = human DILI, LTKB DILIrank category, ref Chen 2016

Nc1nc(NC2CC2)c2ncn([C@H]3C=C[C@@H](CO)C3)c2n1 [abacavir]
DILI Score (FDA) (1-8) [1, 9]: 8 | DILI severity category [2, 10]: vMost-DILI-Concern

C[C@H]1O[C@H](O[C@H]2[C@H](O)[C@@H](O)[C@@H](O[C@H]3[C@H](O)[C@@H](O)C(O)O[C@@H]3CO)O[C@@H]2CO)[C@H](O)[C@@H](O)[C@@H]1N[C@H]1C=C(CO)[C@@H](O)[C@H](O)[C@H]1O (some centres unmarked) [acarbose]
DILI Score (FDA) (1-8) ([1]; in vivo): 5 | DILI +VE (5-8), DILI -VE (-4) ([2]; in vivo): +VE | DILI severity category ([2]; in vivo): vMost-DILI-Concern

CN(C)c1nc(N(C)C)nc(N(C)C)n1 [altretamine]
DILI Score (FDA) (1-8) [1, 9]: 2 | DILI severity category [2, 10]: Ambiguous DILI-concern | DILI +VE (5-8), DILI -VE (-4) [2, 11]: -VE

CC(C(=O)O)c1ccc2oc(-c3ccc(Cl)cc3)nc2c1 (centres unmarked) [benoxaprofen]
In vivo DILI ([3]; ref Aleo 2019): +VE | In vivo DILI ([3]; ref Dawson 2012): +VE | In vivo DILI ([3]; ref Garside 2014): +VE | In vivo DILI ([3]; ref Gustafsson 2014): +VE | In vivo DILI ([3]; ref Proctor 2017): +VE | In vivo DILI ([3]; ref Schadt 2015): +VE | In vivo DILI ([3]; ref Vorrink 2018): +VE | In vivo DILI ([3]; ref Williams 2019): +VE | Partition Hybrid HRM Score ([4]; In vitro Assay, ref Aleo 2019): +VE | Ro2 Hybrid HRM Score ([4]; In vitro Assay, ref Aleo 2019): +VE | Cellular toxicity (3T3 cells) [5, 12]: -VE | Combined Assay [5, 12]: +VE | GSH adduct HML [5, 12]: -VE | Hepatocyte cellular toxicity [5, 12]: -VE | MitoTox 3T3 [5, 12]: -VE | TDI CYP3A4 [5, 12]: -VE | hBSEP inhibition [5, 12]: -VE | PHH ATP <100uM (PHH): -VE | hLiMTs ATP <100uM (hLiMTs): -VE | Inhibition of rBsep cutoff<1& cmax u>.2 (rBsep): +VE | Inhibition of rBsep cutoff<3 (rBsep): +VE | THLE-Null [6]: -VE | THLE-Null/3A4 [6]: -VE | Bayesian Machine Learning [7, 13]: +VE | DILI +VE (5-8), DILI -VE (-4) ([2]; ref Chen 2016): +VE | DILI severity category ([2]; ref Chen 2016): vMost-DILI-Concern | Cluster 1-6 +VE Assay [8, 14]: +VE | hLiMTs ATP <20 x Cmax (PHH spheroids): -VE

CC(C)NCC(O)COc1ccc(COCCOC(C)C)cc1 (centres unmarked) [bisoprolol]
DILI Score (FDA) (1-8) [1, 9]: 3 | DILI severity category [2, 10]: Ambiguous DILI-concern | DILI +VE (5-8), DILI -VE (-4) [2, 11]: -VE

Cc1ccc(-c2cc(C(F)(F)F)nn2-c2ccc(S(N)(=O)=O)cc2)cc1 [celecoxib]
In vivo DILI ([3]; ref Garside 2014): +VE | In vivo DILI ([3]; ref Gustafsson 2014): +VE | In vivo DILI ([3]; ref Proctor 2017): +VE | In vivo DILI ([3]; ref Schadt 2015): +VE | In vivo DILI ([3]; ref Vorrink 2018): +VE | In vivo DILI ([3]; ref Williams 2019): +VE | Cellular toxicity (3T3 cells) [5, 12]: +VE | GSH adduct HML [5, 12]: -VE | Hepatocyte cellular toxicity [5, 12]: -VE | MitoTox 3T3 [5, 12]: -VE | TDI CYP3A4 [5, 12]: -VE | hBSEP inhibition [5, 12]: -VE | PHH ATP <100uM (PHH): +VE (IC50 threshold of 100 µM) | hLiMTs ATP <100uM (hLiMTs): +VE (IC50 threshold of 100 µM) | THLE-Null [6]: +VE | Bayesian Machine Learning [7, 13]: +VE | DILI +VE (5-8), DILI -VE (-4) ([2]; ref Chen 2016): +VE | DILI severity category ([2]; ref Chen 2016): vLess-DILI-Concern | Cluster 1-6 +VE Assay [8, 14]: +VE | hLiMTs ATP <20 x Cmax (PHH spheroids): +VE (IC20 < 20 × Cmax.tot cut-off)

CN(C)CCCN1c2ccccc2CCc2ccc(Cl)cc21 [clomipramine]
Structural based (HCI) (human hepatocytes; In vitro Assay, ref Xu 2008): -VE | Bayesian Machine Learning [7, 13]: +VE | Cluster 1-6 +VE Assay [8, 14]: +VE

O=C(O)c1ccc(-n2nc(-c3ccccc3O)nc2-c2ccccc2O)cc1 [deferasirox]
DILI Score (FDA) (1-8) [1, 15]: 7 | DILI +VE (5-8), DILI -VE (-4) [2, 16]: +VE | DILI severity category [2, 17]: vMost-DILI-Concern

CC(=O)O[C@@]12CO[C@@H]1C[C@H](O)[C@@]1(C)C(=O)[C@H](O)C3=C(C)[C@@H](OC(=O)[C@H](O)[C@@H](NC(=O)OC(C)(C)C)c4ccccc4)C[C@@](O)([C@@H](OC(=O)c4ccccc4)[C@H]21)C3(C)C [docetaxel]
DILI Score (FDA) (1-8) [1, 15]: 8 | DILI +VE (5-8), DILI -VE (-4) [2, 16]: +VE | DILI severity category [2, 17]: vLess-DILI-Concern

O=C(O)Cc1csc(-c2ccc(Cl)cc2)n1 [fenclozic acid]
In vivo DILI ([3]; ref Dawson 2012): +VE | In vivo DILI ([3]; ref Garside 2014): +VE | In vivo DILI ([3]; ref Gustafsson 2014): +VE | In vivo DILI ([3]; ref Williams 2019): +VE | Inhibition of rBsep cutoff<1& cmax u>.2 (rBsep): -VE | Inhibition of rBsep cutoff<3 (rBsep): -VE | THLE-Null [6]: -VE | THLE-Null/3A4 [6]: -VE | Bayesian Machine Learning [7, 13]: +VE | DILI +VE (5-8), DILI -VE (-4) ([2]; ref Chen 2016): +VE | DILI severity category ([2]; ref Chen 2016): vMost-DILI-Concern | Cluster 1-6 +VE Assay [8, 14]: +VE

Nc1nc(O)c2ncn(COC(CO)CO)c2n1 [ganciclovir]
DILI Score (FDA) (1-8) [1, 9]: 7 | DILI severity category [2, 10]: Ambiguous DILI-concern | DILI +VE (5-8), DILI -VE (-4) [2, 11]: -VE

CC(C)Cc1ccc(CC(=O)O)cc1 [ibufenac]
In vivo DILI ([3]; ref Garside 2014): +VE | In vivo DILI ([3]; ref Schadt 2015): +VE | In vivo DILI ([3]; ref Williams 2019): +VE | Cellular toxicity (3T3 cells) [5, 12]: -VE | Combined Assay [5, 12]: +VE | GSH adduct HML [5, 12]: +VE | Hepatocyte cellular toxicity [5, 12]: -VE | MitoTox 3T3 [5, 12]: -VE | TDI CYP3A4 [5, 12]: -VE | hBSEP inhibition [5, 12]: -VE | Bayesian Machine Learning [7, 13]: +VE | DILI +VE (5-8), DILI -VE (-4) ([2]; ref Chen 2016): +VE | DILI severity category ([2]; ref Chen 2016): vMost-DILI-Concern | Cluster 1-6 +VE Assay [8, 14]: +VE

C[C@]12COC(=O)C[C@@H]1CC[C@@H]1[C@@H]2CC[C@@]2(C)[C@H]1CC[C@]2(C)O [oxandrolone]
DILI Score (FDA) (1-8) ([1]; score by FDA drug labelling, scale 1-8, ref Chen 2011): 8 | DILI +VE (5-8), DILI -VE (-4) ([2]; binary in vivo DILI call given beside the severity category, ref Chen 2016): +VE | DILI severity category ([2]; human DILI concern category (LTKB DILIrank), ref Chen 2016): vMost-DILI-Concern

CC(C(=O)O)c1ccc(C(=O)c2cccs2)cc1 (centres unmarked) [suprofen]
In vivo DILI ([3]; ref Garside 2014): +VE | In vivo DILI ([3]; ref Gustafsson 2014): +VE | In vivo DILI ([3]; ref Williams 2019): +VE | THLE-Null [6]: -VE | THLE-Null/3A4 [6]: -VE | Bayesian Machine Learning ([7]; ref Williams 2019): +VE | Cluster 1-6 +VE Assay [8, 14]: -VE

O=C(O)COc1ccc(C(=O)c2cccs2)c(Cl)c1Cl [tienilic acid]
In vivo DILI ([3]; […]): +VE | In vivo DILI ([3]; ref Garside 2014): +VE | In vivo DILI ([3]; ref Proctor 2017): +VE | In vivo DILI ([3]; ref Williams 2019): +VE | PHH ATP <100uM (PHH): -VE | hLiMTs ATP <100uM (hLiMTs): -VE | Bayesian Machine Learning [7, 13]: +VE | DILI +VE (5-8), DILI -VE (-4) ([2]; ref Chen 2016): +VE | DILI severity category ([2]; ref Chen 2016): vMost-DILI-Concern | Cluster 1-6 +VE Assay [8, 14]: +VE

Cc1ccc(C(=O)c2ccc(CC(=O)O)n2C)cc1 [tolmetin]
In vivo DILI ([3]; ref Garside 2014): +VE | In vivo DILI ([3]; ref Gustafsson 2014): +VE | In vivo DILI ([3]; ref Williams 2019): +VE | In vivo DILI ([3]; ref Xu 2008): +VE | Structural based (HCI) (human hepatocytes; In vitro Assay, ref Xu 2008): +VE | THLE-Null [6]: -VE | THLE-Null/3A4 [6]: -VE | Bayesian Machine Learning [7, 13]: +VE | DILI +VE (5-8), DILI -VE (-4) ([2]; ref Chen 2016): +VE | DILI severity category ([2]; ref Chen 2016): vLess-DILI-Concern | Cluster 1-6 +VE Assay [8, 14]: +VE

CC(=O)CC(c1ccccc1)c1c(O)c2ccccc2oc1=O (centres unmarked) [warfarin]
Partition Hybrid HRM Score [4]: +VE | Ro2 Hybrid HRM Score [4]: -VE | Cellular toxicity (3T3 cells) [5]: -VE | Combined Assay [5]: -VE | GSH adduct HML [5]: -VE | Hepatocyte cellular toxicity [5]: -VE | MitoTox 3T3 [5]: -VE | TDI CYP3A4 [5]: -VE | hBSEP inhibition [5]: -VE | Structural based (HCI) (human hepatocytes): -VE | Bayesian Machine Learning [7]: +VE | Cluster 1-6 +VE Assay [8]: -VE
